According to paper PMC3461044, “Probing Protein Sequences as Sources for Encrypted Antimicrobial Peptides” (PLoS ONE, 2012):

How the values were obtained:
[1] = test system: Xanthomonas axonopodis pv. glycines; conditions: for 1/(log(MICs (mM)), Xanthomonas axonopodis pv. glycines): from MIC, 0 where no detectable activity; for MIC, Xanthomonas axonopodis pv. glycines: serial 2-fold dilutions, 96-well, inoculum ~10^5 CFU/mL, highest 256 µg/mL, 48 h, OD600, NDA = Non-detectable activity
Procedure: MICs were determined using the M7-A6 protocol from the Clinical Laboratory Standards Institute (CLSI). […] Initial bacterium inoculum of ∼10^5 colony forming units/mL were transferred, along with serial 2-fold dilutions of each peptide to 96-well plates and incubated for 12 h. […] For each peptide concentration, optical density (OD600) readings were subtracted from that of the growth medium and divided by the positive control (100% bacterial growth). Inhibitory assays for X. axonopodis pv. glycines were conducted by the same methodology with longer incubation time (48 h).

[2] = test system: Escherichia coli ATCC 25922; format: cell-based; conditions: for MIC, Escherichia coli: Mueller-Hinton broth, serial 2-fold dilutions, inoculum ~10^5 CFU/mL, highest 256 µg/mL, 12 h, OD600, NDA = Non-detectable activity; for 1/(log(MICs (mM)), Escherichia coli): from MIC, 0 where no detectable activity
Procedure: (§1) MICs were determined using the M7-A6 protocol from the Clinical Laboratory Standards Institute (CLSI). Escherichia coli ATCC 25922, Pseudomonas aeruginosa ATCC 27853, Staphylococcus aureus ATCC 29313 were streaked in Mueller-Hinton agar, grown overnight at 37°C, transferred to Mueller-Hinton broth and incubated until readings at 600 nm reached the equivalent of 0.5 in the MacFarland scale. […]. Inhibitory assays for X. axonopodis pv. glycines were conducted by the same methodology with longer incubation time (48 h).

[3] = test system: Pseudomonas aeruginosa ATCC 27853; format: cell-based; conditions: for MIC, Pseudomonas aeruginosa: Mueller-Hinton broth, serial 2-fold dilutions, inoculum ~10^5 CFU/mL, highest 256 µg/mL, 12 h, OD600, NDA = Non-detectable activity; for 1/(log(MICs (mM)), Pseudomonas aeruginosa): from MIC, 0 where no detectable activity
Procedure: as §1

[4] = test system: Staphylococcus aureus ATCC 29313; format: cell-based; conditions: for MIC, Staphylococcus aureus: Mueller-Hinton broth, serial 2-fold dilutions, inoculum ~10^5 CFU/mL, highest 256 µg/mL, 12 h, OD600, NDA = Non-detectable activity; for 1/(log(MICs (mM)), Staphylococcus aureus): from MIC, 0 where no detectable activity
Procedure: as §1

[5] = Far UV circular dichroism of peptides in buffer (MRE, α-helix percentage); format: physicochemical; conditions: for [q]208 nm Buffer (Greenfield 69): Mean Residue Ellipticity at 208 nm; for [q]208 nm Buffer (Greenfield 69) / [q]222 nm Buffer (Chen 74): peptide in buffer, far UV CD; for [q]222 nm Buffer (Chen 74): Mean Residue Ellipticity at 222 nm; for % Helicity (Buffer) (Greenfield 69): from [q]208 nm, methodology of Greenfield et al. 1969; for % Helicity (Buffer) (Chen 74): from [q]222 nm, methodology of Chen et al. 1974
Procedure: Far UV CD spectra were acquired for peptides at 20 µM in buffer and in the presence of DMPC or 2∶1 DMPC:DMPG LUVs at 1 mol% peptide/phospholipids. Peptides presented different degrees of secondary structures upon LUVs addition. […] Following the addition of LUVs, some peptides changed conformation resulting in spectral features characteristic of α-helical structures.
Experiments were conducted on a Jasco-J810 spectropolarimeter (Jasco International Co., Japan). Spectra were acquired at room temperature from 194 to 260 nm as an average of 4 readings using a 0.1 cm path length cell, data pitch of 0.2 nm and a response time of 0.5 s. Data Scans of buffer and 2 mM DMPC and 2∶1 DMPC:DMPG LUVs solutions were acquired and subtracted from each peptide data. Peptides were scanned at a concentration of 20 µM in buffer and then 100 fold excess of DMPC and 2∶1 DMPC:DMPG LUVs were added, resulting in a molar ratio of 0.01 peptide/phospholipids. […] Proximity to equilibrium was verified by scanning peptides added with twice the LUVs concentration, approximately 4 mM.

[6] = test system: Phakopsora pachyrhizi; test: Asian rust tolerance assay of transformed soybean plants; format: in vivo, Phakopsora pachyrhizi on Glycine max; conditions: sprayed with 10^6 spores/mL, 15 days, control plants 45±8
Procedure: The gene encoding the peptide gb|ABM17058.1|(213–231), primary structure […], was synthesized by Epoch Life Science Inc. (Sugar Land, TX, USA) and cloned into the vector pBluKSPOXDCAHAS replacing the oxdc gene. The vector was used to transform soybean plants as previously described, [31]. Six intragenic soybean lines were tested for tolerance to Asian rust (Phakopsora pachyrhizi). The plants (20 plants per line at V3 stage) were sprayed with a spore suspension (10^6 spores/mL) and maintained in the greenhouse at room temperature and sprinkling 4 times a day. Leaves were photographed after 15 days and the number of pustules per square centimeter counted.

[7] = test system: Phakopsora pachyrhizi spores; test: In situ germination inhibition of Phakopsora pachyrhizi spores on Glycine max leaves' surface; format: cell-based; conditions: 8 µg/mL (3 µM) peptide co-incubated with 3.5×10^5/ml spores on G. max leaf disks, 7 days, 21°C; average of three experiments
Procedure: P. pachyrhizi spores were scraped off infected G. max leaves and were frozen at −80°C. Prior to the in situ assay, spores were dissolved in Mili-Q® water, incubated at 40°C for 40 min and quantified using a Neubauer chamber. […]. BR-16). Spores were then co-incubated with fifty microliters of a peptide solution at concentrations ranging from 8 to 128 µg/mL. Leaves were immediately placed on a Petri dish containing moist filter papers and incubated at 21°C under 12 h-photoperiod and photographed after 7 days. Images were used to measure the infected area using the QUANT v1.0.1 software.

Sequence: GLWQIFSSKEEGKDNSQQKSKGDQAKEL [gb|ACU24018.1|(73–101), putative IAP; fragment of Unknown protein, Glycine max]
- 1/(log(MICs (mM)), Xanthomonas axonopodis pv. glycines) [1]: 0
- MIC, Xanthomonas axonopodis pv. glycines [1]: NDA
- MIC, Escherichia coli [2]: NDA
- 1/(log(MICs (mM)), Escherichia coli) [2]: 0
- MIC, Pseudomonas aeruginosa [3]: NDA
- 1/(log(MICs (mM)), Pseudomonas aeruginosa) [3]: 0
- MIC, Staphylococcus aureus [4]: NDA
- 1/(log(MICs (mM)), Staphylococcus aureus) [4]: 0
- [q]208 nm Buffer (Greenfield 69) [5]: -7591
- [q]222 nm Buffer (Chen 74) [5]: -2129
- % Helicity (Buffer) (Greenfield 69) [5]: 12.4%
- % Helicity (Buffer) (Chen 74) [5]: 6%

Sequence: GLWSTIKQKGKE [DS 01 (1–12), fragment 1–12 of DS 01, Phyllomedusa oreades, reference compound]
- 1/(log(MICs (mM)), Xanthomonas axonopodis pv. glycines) [1]: 0
- MIC, Xanthomonas axonopodis pv. glycines [1]: NDA
- MIC, Escherichia coli [2]: NDA
- 1/(log(MICs (mM)), Escherichia coli) [2]: 0
- MIC, Pseudomonas aeruginosa [3]: NDA
- 1/(log(MICs (mM)), Pseudomonas aeruginosa) [3]: 0
- MIC, Staphylococcus aureus [4]: NDA
- 1/(log(MICs (mM)), Staphylococcus aureus) [4]: 0
- [q]208 nm Buffer (Greenfield 69) [5]: -9158
- [q]222 nm Buffer (Chen 74) [5]: -2137
- % Helicity (Buffer) (Greenfield 69) [5]: 17.8%
- % Helicity (Buffer) (Chen 74) [5]: 6.1%

Sequence: IAAAQRITSGAADIAINWAGGLHHAKK [B0CZJ3(104–130), putative IAP; fragment of Histone deacetylase complex, Laccaria bicolor]
- 1/(log(MICs (mM)), Xanthomonas axonopodis pv. glycines) [1]: 0
- MIC, Xanthomonas axonopodis pv. glycines [1]: NDA
- MIC, Escherichia coli [2]: NDA
- 1/(log(MICs (mM)), Escherichia coli) [2]: 0
- MIC, Pseudomonas aeruginosa [3]: NDA
- 1/(log(MICs (mM)), Pseudomonas aeruginosa) [3]: 0
- MIC, Staphylococcus aureus [4]: NDA
- 1/(log(MICs (mM)), Staphylococcus aureus) [4]: 0
- [q]208 nm Buffer (Greenfield 69) [5]: -17825
- [q]222 nm Buffer (Chen 74) [5]: -7158
- % Helicity (Buffer) (Greenfield 69) [5]: 47.7%
- % Helicity (Buffer) (Chen 74) [5]: 20.3%

Sequence: KAGLQFPVGRIARFLK [B4FGE3(22–37), putative IAP; fragment of Histone H2A, Zea mays]
- 1/(log(MICs (mM)), Xanthomonas axonopodis pv. glycines) [1]: 0
- MIC, Xanthomonas axonopodis pv. glycines [1]: NDA
- MIC, Escherichia coli [2]: NDA
- 1/(log(MICs (mM)), Escherichia coli) [2]: 0
- MIC, Pseudomonas aeruginosa [3]: NDA
- 1/(log(MICs (mM)), Pseudomonas aeruginosa) [3]: 0
- MIC, Staphylococcus aureus [4]: NDA
- 1/(log(MICs (mM)), Staphylococcus aureus) [4]: 0
- [q]208 nm Buffer (Greenfield 69) [5]: -5213
- [q]222 nm Buffer (Chen 74) [5]: -1506
- % Helicity (Buffer) (Greenfield 69) [5]: 4.2%
- % Helicity (Buffer) (Chen 74) [5]: 4.3%

Sequence: KLKKLLAGQKDGLLGQIAAMSDLYTKK [P94692(929–955), putative IAP; fragment of Pyruvate-ferredoxin oxidoreductase, Desulfovibrio africanus]
- 1/(log(MICs (mM)), Xanthomonas axonopodis pv. glycines) [1]: 0
- MIC, Xanthomonas axonopodis pv. glycines [1]: NDA
- MIC, Escherichia coli [2]: NDA
- 1/(log(MICs (mM)), Escherichia coli) [2]: 0
- MIC, Pseudomonas aeruginosa [3]: NDA
- 1/(log(MICs (mM)), Pseudomonas aeruginosa) [3]: 0
- MIC, Staphylococcus aureus [4]: NDA
- 1/(log(MICs (mM)), Staphylococcus aureus) [4]: 0
- [q]208 nm Buffer (Greenfield 69) [5]: -6507
- [q]222 nm Buffer (Chen 74) [5]: -2066
- % Helicity (Buffer) (Greenfield 69) [5]: 8.6%
- % Helicity (Buffer) (Chen 74) [5]: 5.9%

Sequence: MIKAFKEATKVDKVVVLWTA [gb|ABM17058.1|(213–231), IAP, fragment of G. max D-myo-inositol 3-phosphate synthase; expressed in transformed soybean lineages 72.14.5 and 72.14.9]
- number of uredia per foliar area ([6]; transformed G. max lineage 72.14.5, V3 stage): 7±3 pustules/cm^2
- number of uredia per foliar area ([6]; transformed G. max lineage 72.14.9, V3 stage): 12±3 pustules/cm^2

Sequence: RWRFLRKISSVHMFSVKALDDFRQL [Gm0025x00667(75–100), novel IAP, fragment of the G. max enzyme flavonoid 3-hydroxylase]
- concentration that inhibited the in vitro growth of X. axonopodis pv. glycines ([1]; in vitro growth): 5 µM
- infected area [7]: approximately 50 % of the control

Sequence: SLWKNLSRKISGAVKAQPDLHTLLPLPGS [Q9XEY7(120–148), putative IAP; fragment of Trehalase 1 GMTRE1, Glycine max]
- 1/(log(MICs (mM)), Xanthomonas axonopodis pv. glycines) [1]: 0
- MIC, Xanthomonas axonopodis pv. glycines [1]: NDA
- MIC, Escherichia coli [2]: NDA
- 1/(log(MICs (mM)), Escherichia coli) [2]: 0
- MIC, Pseudomonas aeruginosa [3]: NDA
- 1/(log(MICs (mM)), Pseudomonas aeruginosa) [3]: 0
- MIC, Staphylococcus aureus [4]: NDA
- 1/(log(MICs (mM)), Staphylococcus aureus) [4]: 0
- [q]208 nm Buffer (Greenfield 69) [5]: -11377
- [q]222 nm Buffer (Chen 74) [5]: -2931
- % Helicity (Buffer) (Greenfield 69) [5]: 25.4%
- % Helicity (Buffer) (Chen 74) [5]: 8.3%
